Measured values as given in US20260285853A1, “COMPOUNDS AND METHODS FOR MODULATING SPLICING” (REMIX THERAPEUTICS INC., priority 2023, published 2026).
Where two headings read alike, the source gives them in different places.

What was measured:
Assay type in all cases: cell-based
MYB mRNA [1] = assay: Splicing RT-qPCR assay (THP), Table 2A
HTT mRNA [2] = assay: Splicing RT-qPCR assay (THP), Table 2A
MYB mRNA [3] = assay: Gene panel canonical junction qPCR assay, decrease in CJ mRNA, Table 3
How it was run: (§1)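 Canonical exon-junction (CJ) transcript measured by 5′ nuclease RT-qPCR, normalized to GAPDH, GUSB or PPIA and to DMSO control (2^(−ΔΔCt)). A673 or K562 cells treated 24 h at 37° C with an 11-point 3-fold dilution series, top 10 uM, DMSO ≤0.25%. IC50 from 4-parameter logistic fit of percentage CJ decrease.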

HTT mRNA [4] = assay: as above
How it was run: as §1

[5] = system: SH-SY5Y (human neuroblastoma) cells; assay: Cell viability, Cell Titer Glo 2.0 assay; settings: read-out: Viability SHSY5Y.3 GI50
How it was run: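 SH-SY5Y cells were exposed to serially diluted compounds in IMDM with 10% FBS and 0.1% DMSO for 72 hours at 37° C., 5% CO2. Viability was measured by CellTiter-Glo 2.0 luminescence, with medium-only wells as blank.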

[6] = Table 2A, THP, MYB alternative junction (AJ) mRNA, read-out: MYB AJ (AC50, increase in alternative junction mRNA)
[7] = Table 2A, THP, MYB canonical junction (CJ) mRNA, read-out: MYB CJ (IC50, decrease in canonical junction mRNA)
[8] = Table 2A, THP, HTT alternative junction (AJ) mRNA, read-out: HTT AJ (AC50, increase in alternative junction mRNA)
[9] = Table 2A, THP, HTT canonical junction (CJ) mRNA, read-out: HTT CJ (IC50, decrease in canonical junction mRNA)
[10] = decrease in CJ mRNA levels, canonical junction qPCR, gene panel
[11] = Table 2A (THP), AJ mRNA increase, read-out: MYB AJ (increase in alternative junction mRNA, AC50)
[12] = Table 2A (THP), CJ mRNA decrease, read-out: MYB CJ (decrease in canonical junction mRNA, IC50)
[13] = Table 2A (THP), AJ mRNA increase, read-out: HTT AJ (increase in alternative junction mRNA, AC50)
[14] = Table 2A (THP), CJ mRNA decrease, read-out: HTT CJ (decrease in canonical junction mRNA, IC50)
[15] = decrease in canonical junction (CJ) mRNA, gene panel qPCR, Table 3

IC50 (MYB mRNA [1]; [7]) [nM]	IC50 (HTT mRNA [2]; [9]) [nM]	IC50 (MYB mRNA [3]; [10]) [nM]	IC50 (HTT mRNA [4]; [10]) [nM]	GI50 [5] [nM]	IC50 (MYB mRNA [1]; [12]) [nM]	IC50 (HTT mRNA [2]; [14]) [nM]	IC50 (MYB mRNA [3]; [15]) [nM]	IC50 (HTT mRNA [4]; [15]) [nM]	SMILES	AC50 (MYB mRNA [1]; [6]) [nM]	AC50 (HTT mRNA [2]; [8]) [nM]	AC50 (MYB mRNA [1]; [11]) [nM]	AC50 (HTT mRNA [2]; [13]) [nM]
> 10000	> 10000	> 10000	> 10000	1000 to 10000					Cc1cn2cc(NC(=O)c3ccc(N4CCC(NC5CC5)CC4)c4cn(C)nc34)nc2c(Cn2ccc(=O)[nH]c2=O)n1 [Compound 733, 4-(4-(cyclopropylamino)piperidin-1-yl)-N-(8-((2,4-dioxo-3,4-dihydropyrimidin-1(2H)-yl)methyl)-6-methylimidazo[1,2-a]pyrazin-2-yl)-2-methyl-2H-indazole-7-carboxamide 2,2,2-trifluoroacetate]	> 10000	> 10000		
				100 to 1000	< 100	100 to 1000	< 100	100 to 1000	CCNC1CCN(c2ccc(C(=O)Nc3cc(Oc4ccc(C)cc4)c4nc(C)cn4c3)c3nn(C)cc23)CC1 [Compound 328, 4-(4-(ethylamino)-piperidin-1-yl)-2-methyl-N-(2-methyl-8-(p-tolyloxy)-imidazo[1,2-a]pyridin-6-yl)-2H-indazole-7-carboxamide 2,2,2-trifluoroacetate]			< 100	100 to 1000
				1000 to 10000	100 to 1000	1000 to 10000	< 100	1000 to 10000	CCNC1CCN(c2cc(F)c(C(=O)Nc3cn4cc(C)nc4c(N)c3OC)c3nn(C)cc23)CC1 [Compound 364, N-(8-amino-7-methoxy-2-methyl-imidazo[1,2-a]-pyridin-6-yl)-4-[4-(ethylamino)-1-piperidyl]-6-fluoro-2-methyl-indazole-7-carboxamide]			< 100	100 to 1000
< 100	100 to 1000	< 100	100 to 1000	100 to 1000					CCNC1CCN(c2ccc(C(=O)Nc3cc(F)c4nn(C)cc4c3)c3nc(OC)sc23)CC1 [Compound 704, 7-(4-(ethylamino)piperidin-1-yl)-N-(7-fluoro-2-methyl-2H-indazol-5-yl)-2-methoxybenzo[d]thiazole-4-carboxamide 2,2,2-trifluoroacetate]	< 100	100 to 1000		
				< 100	< 100	< 100	< 100	< 100	Cc1cn2cc(NC(=O)c3c(F)cc(N4CCC(NC5CC5)CC4)c4cn(C)nc34)c(Oc3ccccc3)c(F)c2n1 [Compound 377, 4-[4-(cyclopropylamino)-1-piperidyl]-6-fluoro-N-(8-fluoro-2-methyl-7-phenoxyimidazo [1,2-a]pyridin-6-yl)-2-methyl-indazole-7-carboxamide]			< 100	< 100
				1000 to 10000	1000 to 10000	1000 to 10000	1000 to 10000	1000 to 10000	CCNC1CCN(c2ccc(C(=O)Nc3cc(-n4ccc(=O)cc4)c4nc(C)cn4c3)c3nn(C)cc23)CC1 [Compound 360, 4-(4-(ethylamino)piperidin-1-yl)-2-methyl-N-(2-methyl-8-(4-oxopyridin-1-(4H)-yl)imidazo[1,2-a]-pyridin-6-yl)-2H-indazole-7-carboxamide]			1000 to 10000	1000 to 10000
				1000 to 10000	100 to 1000	> 10000	100 to 1000	> 10000	CCNC1CCN(c2cc(O)c(C(=O)Nc3cn4cc(C)nc(C)c4n3)c3nn(C)cc23)CC1 [Compound 332, N-(6,8-dimethylimidazo[1,2-a]pyrazin-2-yl)-4-(4-(ethylamino)piperidin-1-yl)-6-hydroxy-2-methyl-2H-indazole-7-carboxamide 2,2,2-trifluoroacetate]			100 to 1000	> 10000

Second part, the compound before the results:

SMILES	IC50 (MYB mRNA [1]; [7]) [nM]	IC50 (HTT mRNA [2]; [9]) [nM]	IC50 (MYB mRNA [3]; [10]) [nM]	IC50 (HTT mRNA [4]; [10]) [nM]	GI50 [5] [nM]	IC50 (MYB mRNA [1]; [12]) [nM]	IC50 (HTT mRNA [2]; [14]) [nM]	IC50 (MYB mRNA [3]; [15]) [nM]	IC50 (HTT mRNA [4]; [15]) [nM]	AC50 (MYB mRNA [1]; [6]) [nM]	AC50 (HTT mRNA [2]; [8]) [nM]	AC50 (MYB mRNA [1]; [11]) [nM]	AC50 (HTT mRNA [2]; [13]) [nM]
COc1cc2nn(C)cc2cc1NC(=O)c1c(N)cc(N2CCC(NC3CC3)CC2)c2cn(C)nc12 [Compound 450, 6-amino-4-[4-(cyclopropylamino)-1-piperidyl]-N-(6-methoxy-2-methyl-indazol-5-yl)-2-methyl-indazole-7-carboxamide]					1000 to 10000	> 10000	> 10000	> 10000	> 10000			> 10000	> 10000
Cc1cn2cc(NC(=O)c3c(F)cc(N4CCC(NC5CC5)CC4)c4cn(C)nc34)nc2cn1 [Compound 404, 4-(4-(cyclopropylamino)-piperidin-1-yl)-6-fluoro-2-methyl-N-(6-methylimid-azo-[1,2-a]pyrazin-2-yl)-2H-indazole-7-carbox-amide 2,2,2-trifluoro-acetate]					100 to 1000	< 100	> 10000	< 100	> 10000			< 100	1000 to 10000
CN(C)c1ccc(C(=O)Nc2cc(CNS(C)(=O)=O)c3nn(C)cc3c2)c2nn(C)cc12 [Compound 841]	> 10000	> 10000	> 10000	> 10000	> 10000					> 10000	> 10000		
CNCC1CN(c2ccc(C(=O)Nc3cc(F)c4nn(C)cc4c3)c3nc(OC)sc23)C1 [Compound 750]	< 100	< 100	< 100	< 100	100 to 1000					< 100	100 to 1000		
COc1cc2nn(C)cc2cc1NC(=O)c1c(F)cc(NCC2CCNCC2)c2cn(C)nc12 [Compound 454, 6-fluoro-N-(6-methoxy-2-methyl-indazol-5-yl)-2-methyl-4-(4-piperidylmethylamino)indazole-7-carboxamide]					> 10000	> 10000	> 10000	> 10000	> 10000			1000 to 10000	> 10000
COc1ncccc1NC(=O)c1c(F)cc(N2CCC(NC3CC3)CC2)c2cn(C)nc12 [Compound 412, 4-(4-(cyclopropylamino)piperidin-1-yl)-6-fluoro-N-(2-methoxypyridin-3-yl)-2-methyl-2H-indazole-7-carboxamide]					1000 to 10000	1000 to 10000	> 10000	1000 to 10000	> 10000			1000 to 10000	> 10000
COc1c(NC(=O)c2ccc(N3CCC(NC4CC4)CC3)c3c2OCO3)cn2cc(C)nc2c1F [Compound 650, 7-[4-(cyclopropylamino)-1-piperidyl]-N-(8-fluoro-7-methoxy-2-methyl-imidazo[1,2-a]pyridin-6-yl)-1,3-benzodioxole-4-carboxamide]	< 100	< 100	< 100	< 100	100 to 1000					< 100	100 to 1000		
Cc1cn2cc(NC(=O)c3cnc(N4CCC(NC5CC5)CC4)c4cn(C)nc34)nc2c(C)n1 [Compound 609, 4-[4-(cyclopropylamino)-1-piperidyl]-N-(6,8-dimethylimidazo [1,2-a]pyrazin-2-yl)-2-methyl-pyrazolo[4,3-c]pyridine-7-carboxamide]	100 to 1000	> 10000	100 to 1000	> 10000	> 10000					< 100	> 10000		
COc1cc2c(N3CCC(NC4CC4)CC3)ccc(C(=O)Nc3cc(CNS(C)(=O)=O)c4nc(C)cn4c3)n2n1 [Compound 838]	1000 to 10000	> 10000	1000 to 10000	> 10000	1000 to 10000					1000 to 10000	> 10000		
Cc1cn2cc(NC(=O)c3ccc(N4CCNCC4)c4c3OCO4)cc(F)c2n1 [Compound 642, N-(8-fluoro-2-methyl-imidazo[1,2-a]pyridin-6-yl)-7-piperazin-1-yl-1,3-benzodioxole-4-carboxamide]	1000 to 10000	1000 to 10000	1000 to 10000	1000 to 10000	1000 to 10000					1000 to 10000	1000 to 10000		
Cc1nc2c(C(=O)Nc3cc(F)c4nn(C)cc4c3)ccc(N3C[C@H](C)N[C@@H](C)C3)c2s1 [Compound 780]	< 100	100 to 1000	< 100	100 to 1000	< 100					< 100	100 to 1000		
COc1cc2nn(C)cc2cc1NC(=O)c1c(F)cc(N2CCC(NC3CC3)CC2)c2nc(C)sc12 [Compound 661, 4-[4-(cyclopropyl-amino)-1-piperidyl]-6-fluoro-N-(6-methoxy-2-methyl-indazol-5-yl)-2-methyl-1,3-benzothiazole-7-carboxamide]	1000 to 10000	1000 to 10000	1000 to 10000	1000 to 10000	1000 to 10000					1000 to 10000	1000 to 10000		
